Data published in the kinase profiling compilation of Christmann-Franck et al. (2016).

Experiments:
Assay in all cases: KINOMEscan competition binding
Details in all cases: compound 10.0 µM
[1] = tested on: EGFR (human), P00533 [L858R]
TESK1 (human) = TESK1 (human) (UniProt Q15569)
RIOK2 (human) = RIOK2 (human) (UniProt Q9BVS4)
SRPK3 (human) = SRPK3 (human) (UniProt Q9UPE1)
SYK (human) = SYK (human) (UniProt P43405)
SGK110 (human) = SGK110 (human) (UniProt P0C264)
EPHA1 (human) = EPHA1 (human) (UniProt P21709)
EPHA8 (human) = EPHA8 (human) (UniProt P29322)
FES (human) = FES (human) (UniProt P07332)
ADCK3 (human) = ADCK3 (human) (UniProt Q8NI60)
MAP2K6 (human) = MAP2K6 (human) (UniProt P52564)
[2] = biological target: JAK1 JH1 catalytic (human) (UniProt P23458)
Sequence of JAK1 JH1 catalytic (human) (P23458 whole entry, looked up): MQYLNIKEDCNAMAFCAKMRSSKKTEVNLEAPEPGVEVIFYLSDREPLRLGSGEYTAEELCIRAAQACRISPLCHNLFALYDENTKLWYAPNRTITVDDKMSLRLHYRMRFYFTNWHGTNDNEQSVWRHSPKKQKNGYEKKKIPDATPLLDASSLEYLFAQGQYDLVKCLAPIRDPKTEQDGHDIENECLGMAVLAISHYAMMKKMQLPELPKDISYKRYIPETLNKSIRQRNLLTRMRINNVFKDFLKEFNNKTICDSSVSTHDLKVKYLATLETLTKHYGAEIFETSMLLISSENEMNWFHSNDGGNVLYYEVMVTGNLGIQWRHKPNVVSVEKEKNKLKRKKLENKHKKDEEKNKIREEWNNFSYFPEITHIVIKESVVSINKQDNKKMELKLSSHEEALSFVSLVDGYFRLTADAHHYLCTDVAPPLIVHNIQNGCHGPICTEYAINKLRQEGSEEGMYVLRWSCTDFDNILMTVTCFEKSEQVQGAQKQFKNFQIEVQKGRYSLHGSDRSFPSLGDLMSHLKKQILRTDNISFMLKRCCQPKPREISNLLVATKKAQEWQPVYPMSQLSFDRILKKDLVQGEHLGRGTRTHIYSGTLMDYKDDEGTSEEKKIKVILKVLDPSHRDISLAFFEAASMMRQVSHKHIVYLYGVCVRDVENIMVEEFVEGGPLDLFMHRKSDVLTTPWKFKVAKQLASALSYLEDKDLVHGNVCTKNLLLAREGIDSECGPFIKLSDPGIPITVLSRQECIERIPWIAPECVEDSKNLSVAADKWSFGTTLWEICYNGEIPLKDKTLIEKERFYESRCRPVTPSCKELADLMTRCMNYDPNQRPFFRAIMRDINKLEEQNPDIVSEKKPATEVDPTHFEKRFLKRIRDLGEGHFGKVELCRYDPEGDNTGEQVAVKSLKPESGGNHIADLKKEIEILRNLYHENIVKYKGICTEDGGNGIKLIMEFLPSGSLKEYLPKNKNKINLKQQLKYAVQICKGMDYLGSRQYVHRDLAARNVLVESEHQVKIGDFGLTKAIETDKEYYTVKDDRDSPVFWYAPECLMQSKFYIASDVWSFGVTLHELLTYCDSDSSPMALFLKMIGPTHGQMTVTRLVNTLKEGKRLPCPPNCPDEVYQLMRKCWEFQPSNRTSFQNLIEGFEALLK

MAP2K3 (human) = MAP2K3 (human) (UniProt P46734)
CDK4 CCND3 (human) = CDK4 CCND3 (human) (UniProt P11802+P30281)
TEC (human) = TEC (human) (UniProt P42680)
Sequence of TEC (human) (P42680 whole entry, looked up): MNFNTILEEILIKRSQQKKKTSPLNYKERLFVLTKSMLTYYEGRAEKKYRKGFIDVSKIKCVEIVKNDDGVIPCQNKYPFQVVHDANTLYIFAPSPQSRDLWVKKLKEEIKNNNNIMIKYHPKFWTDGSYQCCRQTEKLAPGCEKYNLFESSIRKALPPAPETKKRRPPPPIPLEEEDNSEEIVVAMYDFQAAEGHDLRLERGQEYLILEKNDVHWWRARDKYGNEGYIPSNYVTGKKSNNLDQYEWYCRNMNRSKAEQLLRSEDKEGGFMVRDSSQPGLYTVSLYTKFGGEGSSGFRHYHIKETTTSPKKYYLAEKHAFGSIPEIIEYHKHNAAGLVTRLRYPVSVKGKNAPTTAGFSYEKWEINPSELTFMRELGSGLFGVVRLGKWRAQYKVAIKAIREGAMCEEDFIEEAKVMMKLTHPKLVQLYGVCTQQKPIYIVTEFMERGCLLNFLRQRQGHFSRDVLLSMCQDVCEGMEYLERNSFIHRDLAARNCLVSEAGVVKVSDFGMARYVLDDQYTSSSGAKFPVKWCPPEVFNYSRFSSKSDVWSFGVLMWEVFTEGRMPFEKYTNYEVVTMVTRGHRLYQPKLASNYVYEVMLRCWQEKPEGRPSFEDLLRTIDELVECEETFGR

PRKD2 (human) = PRKD2 (human) (UniProt Q9BZL6)
CDK18 (human) = CDK18 (human) (UniProt Q07002)
INSR (human) = INSR (human) (UniProt P06213)
Sequence of INSR (human) (P06213 whole entry, looked up): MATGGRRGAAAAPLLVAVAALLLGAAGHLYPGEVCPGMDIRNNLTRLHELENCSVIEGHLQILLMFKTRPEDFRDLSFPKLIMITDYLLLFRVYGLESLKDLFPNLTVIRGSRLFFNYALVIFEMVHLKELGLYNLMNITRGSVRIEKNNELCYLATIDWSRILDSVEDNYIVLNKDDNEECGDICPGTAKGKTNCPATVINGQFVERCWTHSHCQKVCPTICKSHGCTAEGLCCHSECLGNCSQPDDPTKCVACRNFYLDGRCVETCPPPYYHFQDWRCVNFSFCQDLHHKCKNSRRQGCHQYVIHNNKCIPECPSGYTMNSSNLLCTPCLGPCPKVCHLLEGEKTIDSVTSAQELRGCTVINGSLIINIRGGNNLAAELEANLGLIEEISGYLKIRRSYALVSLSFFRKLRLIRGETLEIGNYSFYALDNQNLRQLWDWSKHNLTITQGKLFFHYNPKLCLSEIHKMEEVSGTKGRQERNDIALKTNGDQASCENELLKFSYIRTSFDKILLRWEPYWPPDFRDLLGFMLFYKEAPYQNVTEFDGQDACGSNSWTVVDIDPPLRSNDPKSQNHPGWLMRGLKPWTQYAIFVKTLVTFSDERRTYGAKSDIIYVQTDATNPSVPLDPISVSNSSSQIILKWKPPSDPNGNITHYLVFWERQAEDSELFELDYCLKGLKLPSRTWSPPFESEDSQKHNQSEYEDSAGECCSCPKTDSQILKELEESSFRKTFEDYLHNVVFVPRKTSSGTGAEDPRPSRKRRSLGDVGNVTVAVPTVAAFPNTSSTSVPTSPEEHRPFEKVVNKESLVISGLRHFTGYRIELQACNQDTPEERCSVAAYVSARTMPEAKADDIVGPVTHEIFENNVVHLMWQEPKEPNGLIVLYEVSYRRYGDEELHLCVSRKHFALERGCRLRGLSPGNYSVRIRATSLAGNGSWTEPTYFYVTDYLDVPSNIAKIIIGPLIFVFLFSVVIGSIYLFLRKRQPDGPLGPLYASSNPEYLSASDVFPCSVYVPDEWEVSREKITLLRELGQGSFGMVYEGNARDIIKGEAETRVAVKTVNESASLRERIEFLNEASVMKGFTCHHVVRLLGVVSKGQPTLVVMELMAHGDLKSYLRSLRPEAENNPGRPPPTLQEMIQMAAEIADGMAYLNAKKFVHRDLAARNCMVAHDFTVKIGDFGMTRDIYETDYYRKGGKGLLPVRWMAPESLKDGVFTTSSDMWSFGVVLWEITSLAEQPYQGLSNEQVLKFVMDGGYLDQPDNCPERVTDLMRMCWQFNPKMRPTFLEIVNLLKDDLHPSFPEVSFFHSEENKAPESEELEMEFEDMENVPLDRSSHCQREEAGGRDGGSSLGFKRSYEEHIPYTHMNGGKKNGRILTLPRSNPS

CDK19 (human) = CDK19 (human) (UniProt Q9BWU1)
PLK4 (human) = PLK4 (human) (UniProt O00444)
CDK9 (human) = CDK9 (human) (UniProt P50750)
RPS6KA5 KD1 (human) = RPS6KA5 KD1 (human) (UniProt O75582)
PI4KB (human) = PI4KB (human) (UniProt Q9UBF8)
PRPF4B (human) = PRPF4B (human) (UniProt Q13523)
STK16 (human) = STK16 (human) (UniProt O75716)
Sequence of STK16 (human) (O75716 whole entry, looked up): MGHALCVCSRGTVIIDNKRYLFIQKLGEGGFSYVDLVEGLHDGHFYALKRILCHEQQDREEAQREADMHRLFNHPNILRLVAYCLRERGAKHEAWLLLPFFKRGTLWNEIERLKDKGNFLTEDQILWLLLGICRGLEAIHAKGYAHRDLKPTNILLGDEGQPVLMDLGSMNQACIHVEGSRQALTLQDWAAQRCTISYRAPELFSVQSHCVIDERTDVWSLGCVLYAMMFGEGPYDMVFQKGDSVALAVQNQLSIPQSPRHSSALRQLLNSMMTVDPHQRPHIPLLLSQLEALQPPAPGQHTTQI

FGFR2 (human) = FGFR2 (human) (UniProt P21802)
NIM1 (human) = NIM1 (human) (UniProt Q8IY84)
RIOK3 (human) = RIOK3 (human) (UniProt O14730)
DCLK1 (human) = DCLK1 (human) (UniProt O15075)
[3] = tested on: MET (human), P08581 [M1250T]
EIF2AK2 (human) = EIF2AK2 (human) (UniProt P19525)
MAPKAPK5 (human) = MAPKAPK5 (human) (UniProt Q8IW41)
NTRK2 (human) = NTRK2 (human) (UniProt Q16620)
PAK6 (human) = PAK6 (human) (UniProt Q9NQU5)
ULK2 (human) = ULK2 (human) (UniProt Q8IYT8)
CDKL3 (human) = CDKL3 (human) (UniProt Q8IVW4)
MARK3 (human) = MARK3 (human) (UniProt P27448)
Sequence of MARK3 (human) (P27448 whole entry, looked up): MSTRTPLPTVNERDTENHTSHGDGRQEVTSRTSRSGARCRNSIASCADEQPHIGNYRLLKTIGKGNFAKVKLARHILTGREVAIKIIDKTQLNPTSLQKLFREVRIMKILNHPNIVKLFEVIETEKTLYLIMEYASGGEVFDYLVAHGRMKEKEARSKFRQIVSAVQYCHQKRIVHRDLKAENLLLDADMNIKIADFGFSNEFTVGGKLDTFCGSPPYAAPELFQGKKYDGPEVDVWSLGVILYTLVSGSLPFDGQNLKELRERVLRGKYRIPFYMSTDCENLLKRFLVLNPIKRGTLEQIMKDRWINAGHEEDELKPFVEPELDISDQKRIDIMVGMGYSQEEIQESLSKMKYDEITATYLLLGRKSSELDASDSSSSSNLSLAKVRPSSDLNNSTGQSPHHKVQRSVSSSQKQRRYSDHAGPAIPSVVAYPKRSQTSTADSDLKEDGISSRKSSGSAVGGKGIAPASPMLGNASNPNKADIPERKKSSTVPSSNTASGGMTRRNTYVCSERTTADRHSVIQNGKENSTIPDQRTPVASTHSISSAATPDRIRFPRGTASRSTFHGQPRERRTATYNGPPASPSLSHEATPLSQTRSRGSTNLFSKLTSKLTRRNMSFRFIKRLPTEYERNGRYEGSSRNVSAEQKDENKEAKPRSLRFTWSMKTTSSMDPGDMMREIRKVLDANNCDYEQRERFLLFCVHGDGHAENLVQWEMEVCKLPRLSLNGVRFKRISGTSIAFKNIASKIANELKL

CDK13 (human) = CDK13 (human) (UniProt Q14004)
MAPK14 (human) = MAPK14 (human) (UniProt Q16539)
PRKG1 (human) = PRKG1 (human) (UniProt Q13976)

Sequence of TESK1 (human) (Q15569 whole entry, looked up): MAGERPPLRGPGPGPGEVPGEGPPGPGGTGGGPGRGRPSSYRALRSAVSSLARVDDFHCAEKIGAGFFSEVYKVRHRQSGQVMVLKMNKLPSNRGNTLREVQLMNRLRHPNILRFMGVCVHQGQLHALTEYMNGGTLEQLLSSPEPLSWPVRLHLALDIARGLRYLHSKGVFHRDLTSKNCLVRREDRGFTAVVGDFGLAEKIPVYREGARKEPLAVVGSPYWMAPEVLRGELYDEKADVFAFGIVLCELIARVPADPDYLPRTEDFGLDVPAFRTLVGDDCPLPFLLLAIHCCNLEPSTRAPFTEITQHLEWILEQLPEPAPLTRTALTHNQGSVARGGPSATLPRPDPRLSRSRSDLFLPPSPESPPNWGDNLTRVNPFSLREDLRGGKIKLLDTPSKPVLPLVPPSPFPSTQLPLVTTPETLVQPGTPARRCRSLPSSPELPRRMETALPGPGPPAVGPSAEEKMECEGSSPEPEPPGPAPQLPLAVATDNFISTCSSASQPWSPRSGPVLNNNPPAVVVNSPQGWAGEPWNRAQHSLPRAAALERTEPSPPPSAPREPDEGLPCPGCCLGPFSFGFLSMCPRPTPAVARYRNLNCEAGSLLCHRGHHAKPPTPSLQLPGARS

| Compound | kinase still bound, per cent of control [1] | kinase still bound, per cent of control (TESK1 (human)) | kinase still bound, per cent of control (RIOK2 (human)) | kinase still bound, per cent of control (SRPK3 (human)) | kinase still bound, per cent of control (SYK (human)) | kinase still bound, per cent of control (SGK110 (human)) | kinase still bound, per cent of control (EPHA1 (human)) | kinase still bound, per cent of control (EPHA8 (human)) | kinase still bound, per cent of control (FES (human)) | kinase still bound, per cent of control (ADCK3 (human)) | kinase still bound, per cent of control (MAP2K6 (human)) | kinase still bound, per cent of control [2] | kinase still bound, per cent of control (MAP2K3 (human)) | kinase still bound, per cent of control (CDK4 CCND3 (human)) | kinase still bound, per cent of control (TEC (human)) | kinase still bound, per cent of control (PRKD2 (human)) | kinase still bound, per cent of control (CDK18 (human)) | kinase still bound, per cent of control (INSR (human)) | kinase still bound, per cent of control (CDK19 (human)) | kinase still bound, per cent of control (PLK4 (human)) | further results |
| --- | --- | --- | --- | --- | --- | --- | --- | --- | --- | --- | --- | --- | --- | --- | --- | --- | --- | --- | --- | --- | --- |
| CNC(=O)Nc1ccc(-c2nc(N3CC4CCC(C3)O4)c3cnn(C4CCC5(CC4)OCCO5)c3n2)cc1 | 53% | 80% | 90% | 100% | 100% | 96% | 81% | 81% | 100% | 86% | 95% | 82% | 89% | 92% | 84% | 100% | 92% | 84% | 100% | 75% | kinase still bound, per cent of control (CDK9 (human)): 100%; kinase still bound, per cent of control (RPS6KA5 KD1 (human)): 86%; kinase still bound, per cent of control (PI4KB (human)): 100%; kinase still bound, per cent of control (PRPF4B (human)): 70%; kinase still bound, per cent of control (STK16 (human)): 98%; kinase still bound, per cent of control (FGFR2 (human)): 92%; kinase still bound, per cent of control (NIM1 (human)): 100%; kinase still bound, per cent of control (RIOK3 (human)): 100%; kinase still bound, per cent of control (DCLK1 (human)): 100%; kinase still bound, per cent of control [3]: 87%; kinase still bound, per cent of control (EIF2AK2 (human)): 100%; kinase still bound, per cent of control (MAPKAPK5 (human)): 100%; kinase still bound, per cent of control (NTRK2 (human)): 100%; kinase still bound, per cent of control (PAK6 (human)): 100%; kinase still bound, per cent of control (ULK2 (human)): 90%; kinase still bound, per cent of control (CDKL3 (human)): 95%; kinase still bound, per cent of control (MARK3 (human)): 92%; kinase still bound, per cent of control (CDK13 (human)): 84%; kinase still bound, per cent of control (MAPK14 (human)): 100%; kinase still bound, per cent of control (PRKG1 (human)): 100% |
| O=c1[nH]c2ccccc2n1C1CCN(Cc2ccc(-c3nc4cc5[nH]cnc5cc4nc3-c3ccccc3)cc2)CC1 | 53% | 74% | 79% | 87% | 84% | 81% | 100% | 95% | 100% | 100% | 100% | 100% | 100% | 100% | 100% | 95% | 97% | 64% | 75% | 60% | kinase still bound, per cent of control (CDK9 (human)): 100%; kinase still bound, per cent of control (RPS6KA5 KD1 (human)): 100%; kinase still bound, per cent of control (PI4KB (human)): 60%; kinase still bound, per cent of control (PRPF4B (human)): 81%; kinase still bound, per cent of control (STK16 (human)): 92%; kinase still bound, per cent of control (FGFR2 (human)): 100%; kinase still bound, per cent of control (NIM1 (human)): 71%; kinase still bound, per cent of control (RIOK3 (human)): 64%; kinase still bound, per cent of control (DCLK1 (human)): 86%; kinase still bound, per cent of control [3]: 28%; kinase still bound, per cent of control (EIF2AK2 (human)): 100%; kinase still bound, per cent of control (MAPKAPK5 (human)): 59%; kinase still bound, per cent of control (NTRK2 (human)): 85%; kinase still bound, per cent of control (PAK6 (human)): 85%; kinase still bound, per cent of control (ULK2 (human)): 88%; kinase still bound, per cent of control (CDKL3 (human)): 100%; kinase still bound, per cent of control (MARK3 (human)): 72%; kinase still bound, per cent of control (CDK13 (human)): 98%; kinase still bound, per cent of control (MAPK14 (human)): 88%; kinase still bound, per cent of control (PRKG1 (human)): 88% |
